What was measured:
[1] = system: HeLa cells; test: LDH release assay; type: cell-based, human; settings: 24 h, highest concentration of 50 µM
Experimental: In order to distinguish whether the cell viability inhibition was attributed to growth inhibition or cytotoxicity manifested by cell membrane disruption, the lactate dehydrogenase (LDH) release assay was conducted. LDH is a cytoplasmic enzyme rapidly released from cells upon membrane damage, a key feature of apoptosis, necrosis, and other forms of cell death. The released enzyme can be detected due to its ability to convert lactate into pyruvate and NADH, which is then specifically determined by a colorimetric assay.
Figure 3 The effects of 5 (blue) and 7 (green) on LDH release from HeLa cells. The cells were treated with compounds at a concentration range of 3.125–50 μM for 24 h at 37 °C and 5% CO2. Data are presented as the mean LDH release (%) ± SD of two experiments compared to untreated control (red). Statistical significance measured by two-way analysis of variance (ANOVA) is indicated by asterisks: (*) p < 0.05.
LDH release assay: The activity of 5 and 7 on cell membrane destabilization was determined with the CytoTox 96®Non-Radioactive Cytotoxicity Assay (Promega, Madison, WI, USA). […] After incubation, Stop Solution (50 μL) was added to each well, and the absorbance was measured at 490 nm using the SpectraMax i3 Multi-Mode Platform (Molecular Devices, San Jose, CA, USA). […]

[2] = system: HeLa cells; test: Cell cycle analysis (PI staining, flow cytometry); type: cell-based, human; settings: 24 h, concentration corresponding to IC50
Experimental: The MTT and LDH release assays provided evidence that aziridine phosphine oxides 5 and 7 inhibit cancer cell viability at concentrations equal to their respective IC50 values through antiproliferative mechanisms rather than by inducing cell death. It is expected that such observations will be reflected in cell cycle disturbances. To investigate which phase of the cell cycle is arrested, a cell cycle analysis was performed using propidium iodide (PI) staining. PI binds in proportion to the amount of DNA present in the cell. As a result of DNA replication, the cells in the S phase of the cell cycle contain more DNA than cells in the G1 phase. […] Before the exact analysis of the obtained results, we utilized a pre-gate to define the counted cells to be analyzed for cell cycle distribution. […] These findings confirmed the antiproliferative activity of these compounds.
Figure 4 Effects of 5 and 7 on cell cycle phase distribution in HeLa cells compared to untreated control. […] Data are expressed as mean ± SD of two independent experiments. Statistical significance in comparison with the untreated control, measured by two-way analysis of variance (ANOVA) followed by Bonferroni multiple comparison test, is indicated by asterisks: (*) p < 0.05, (**) p < 0.01, (***) p < 0.001.
Cell cycle analysis: The distribution of cell cycle phases was measured using flow cytometry and propidium iodide (PI) staining. The PI intercalates into the major groove of double-stranded DNA, producing a highly fluorescent signal when excited at 488 nm, with a broad emission centered around 600 nm. PI binds in proportion to the amount of DNA present in the cell. HeLa cells were seeded on 60 mm dishes at a density of 5 × 10^5 in 3 mL of Dulbecco’s Modified Eagle’s Medium F12 (DMEM-F12, Biowest, Nuaillé, France) supplemented with 10% fetal bovine serum (FBS, Biowest), 100 units/mL of penicillin G and 100 μg/mL of streptomycin (Biowest, Nuaillé, France) and incubated for 24 h at 37 °C and 5% CO2. Then, compounds 5 or 7 were added at a concentration corresponding to their IC50 values and the plate was incubated for the next 24 h. Untreated cells were used as a positive control. The cells were then harvested by trypsinization, suspended in culture medium (1 mL), centrifuged at 3600 rpm for 10 min, and washed twice with dPBS (Dulbecco’s phosphate-buffered saline, Cytogen–Polska Sp. z o.o, Zgierz, Poland). The cell sediment was resuspended in dPBS (600 μL) and fixed in 70% ice-cold ethanol. After storing the cells at 4 °C for 24 h, they were stained in PI staining solution (600 µL, 50 μg/mL of PI, and 100 μg/mL of RNAse A in dPBS) and incubated for 30 min at 37 °C in darkness. The cell cycle distribution was analyzed by flow cytometry using an LSRII (Becton Dickinson, Franklin Lakes, NJ, USA) instrument at 488 nm excitation and 535/617 emission wavelengths, and the cell cycle phase distribution from two independent experiments (10,000 cell counts/sample) was determined with the FlowJo 7.6.1 software (FlowJo, LLC, Ashland, OR, USA) using a built-in cell cycle analysis module (Watson pragmatic algorithm).

SMILES	LDH release compared to untreated control [1]	cell cycle arrest (phase distribution) [2]	number of cells in the sub-G1 phase (indicative of apoptosis) [2]	stage of S-phase arrest (histograms of cell cycle distribution) [2]
CC(C)[C@@H]1CN1c1ccccc1P(=O)(c1ccccc1)c1ccccc1 [Compound 5]	significant LDH release	significant cell arrest in the S phase	significantly increased	cell arrest mainly in the early stages of the S phase
CC(C)C[C@H]1CN1c1ccccc1P(=O)(c1ccccc1)c1ccccc1 [Compound 7]	significant LDH release	significant cell arrest in the S phase	significantly increased	more effective in the late S phase

From PMC11012799 (Molecules, 2024)
